# Patent US6730670B2, “7-phenyl-benzo[b]thiophen amide derivatives” (Hoffmann-La Roche Inc., priority 2001, dated 2004)
# Molecular target: T1, human adenosine A2A receptor (Homo sapiens, UniProt P29274)
# T1 construct: expressed in transfected cells; host or cells: CHO cells, Semliki Forest virus expression system; washed membrane preparation
# Experiment: [3H]-SCH-58261 binding assay, human adenosine A2A receptor (CHO cell membranes, SPA)
# Conditions: [3H]-SCH-58261 1 nM; membranes of CHO cells expressing human A2A receptor; Ki from IC50 by Cheng-Prussoff equation; read-out: hA2 (pKi) (converted)
# Method: Human Adenosine A2A Receptor
# The human adenosine A2A receptor was recombinantly expressed in chinese hamster ovary (CHO) cells using the semliki forest virus expression system. Cells were harvested, washed twice by centrifugation, homogenized and again washed by centrifugation. The final washed membrane pellet was suspended in a Tris (50 mM) buffer containing 120 mM NaCl, 5 mM KCl, 2 mM CaCl2 and 10 mM MgCl2 (pH 7.4) (buffer A). The [^3H]-SCH-58261 (Dionisotti et al., 1997, Br J Pharmacol 121, 353; 1 nM) binding assay was carried out in 96-well plates in the presence of 2.5 μg of membrane protein, 0.5 mg of Ysi-poly-1-lysine SPA beads and 0.1 U adenosine deaminase in a final volume of 200 μl of buffer A. Non-specific binding was defined using xanthine amine congener (XAC; 2 μM). Compounds were tested at 10 concentrations from 10 μM-0.3 nM. All assays were conducted in duplicate and repeated at least two times. Assay plates were incubated for 1 hour at room temperature before centricentrifugation and then bound ligand determined of test compound using a Packard Topcount scintillation counter. IC50 values, the concentration where 50% of the […] binding is displaced, were calculated using a non-linear curve fitting program and Ki values calculated using the Cheng-Prussoff equation.
# Preferred compounds of formula I have a pKi>6.4.
# T1 sequence (P29274 whole entry): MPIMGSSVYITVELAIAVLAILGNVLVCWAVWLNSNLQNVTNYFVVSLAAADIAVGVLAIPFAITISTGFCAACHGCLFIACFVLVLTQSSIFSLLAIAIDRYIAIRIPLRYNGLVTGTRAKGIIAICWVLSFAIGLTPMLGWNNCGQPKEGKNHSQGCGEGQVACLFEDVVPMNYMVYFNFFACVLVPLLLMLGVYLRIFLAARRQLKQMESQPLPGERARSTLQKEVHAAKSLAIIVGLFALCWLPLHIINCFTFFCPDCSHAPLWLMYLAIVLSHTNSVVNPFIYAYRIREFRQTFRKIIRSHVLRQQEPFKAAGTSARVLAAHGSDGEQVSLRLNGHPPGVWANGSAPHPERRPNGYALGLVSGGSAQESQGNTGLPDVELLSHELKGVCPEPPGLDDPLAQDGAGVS
row,Compound,Ki [nM]
1,"COc1ccc(-c2ccccc2)c2sc(NC(=O)N3CCC(OC)CC3)cc12 [Example 5, 4-Methoxy-piperidine-1-carboxylic acid (4-methoxy-7-phenyl-benzo[b]thiophen-2-yl)-amide]",347
2,"COc1ccc(-c2ccccc2)c2sc(NC(=O)c3ccc(C)nc3)cc12 [Example 8, N-(4-Methoxy-7-phenyl-benzo[b]thiophen-2-yl)-6-methyl-nicotinamide]",302
3,"COc1ccc(-c2ccccc2)c2sc(NC(=O)c3ccnc(C)c3)cc12 [Example 9, N-(4-Methoxy-7-phenyl-benzo[b]thiophen-2-yl)-2-methyl-isonicotinamide]",389
4,"COc1ccc(-c2ccccc2)c2sc(NC(=O)c3ccc(F)cc3)cc12 [Example 10, 4-Fluoro-N-(4-methoxy-7-phenyl-benzo[b]thiophen-2-yl)-benzamide]",43.7

# Further lines, results first:
row,Ki [nM],Compound
1,155,"COc1ccc(-c2ccccc2)c2sc(NC(=O)N3CCSCC3)cc12 [Example 1, Thiomorpholine-4-carboxylic acid (4-methoxy-7-phenyl-benzo[b]thiophen-2-yl)-amide]"
2,263,"COc1ccc(-c2ccccc2)c2sc(NC(=O)N3CCOCC3)cc12 [Example 2, Morpholine-4-carboxylic acid (4-methoxy-7-phenyl-benzo[b]thiophen-2-yl)-amide]"
3,257,"COc1ccc(-c2ccccc2)c2sc(NC(=O)N3CCCCC3)cc12 [Example 3, Piperidine-1-carboxylic acid (4-methoxy-7-phenyl-benzo[b]thiophen-2-yl)-amide]"
4,126,"COc1ccc(-c2ccccc2)c2sc(NC(=O)N3CCC(O)CC3)cc12 [Example 4, 4-Hydroxy-piperidine-1-carboxylic acid (4-methoxy-7-phenyl-benzo[b]thiophen-2-yl)-amide]"
5,97.7,"COc1ccc(-c2ccccc2)c2sc(NC(=O)N3CCC(CO)CC3)cc12 [Example 6, 4-Hydroxymethyl-piperidine-1-carboxylic acid (4-methoxy-7-phenyl-benzo[b]thiophen-2-yl)-amide]"
6,240,"COc1ccc(-c2ccccc2)c2sc(NC(=O)N3CCN(C)CC3)cc12 [Example 7, 4-Methyl-piperazine-1-carboxylic acid (4-methoxy-7-phenyl-benzo[b]thiophen-2-yl)-amide]"
